According to US11110096B2, “Combination therapies” (Infinity Pharmaceuticals, Inc., priority 2014, dated 2021):

Assays:
[1] = system: GRANTA-519; experiment: Combination study Compound 1 + Bcl-2 inhibitor, ATPLite 72 h, mantle cell lymphoma cell line; type: cell-based; settings: combination with Compound 1
From the text: (§1) The method is described as follows. […] These cell lines include GRANTA-519, Jeko-1 and Mino.

[2] = system: Jeko-1; experiment: as above; type: cell-based; settings: combination with Compound 1
From the text: as §1

[3] = system: Mino; experiment: as above; type: cell-based; settings: combination with Compound 1
From the text: The method is described as follows. […] Additive effect is CI=1.0. […] Antagonistic effect is CI>1.0. […] These cell lines include GRANTA-519, Jeko-1 and Mino.

[4] = system: WSU-NHL; experiment: Combination study Compound 1 + Bcl-2 inhibitor, ATPLite 72 h, follicular lymphoma cell line; type: cell-based; settings: combination with Compound 1
From the text: (§2) The method is described as follows. […] Additive effect is CI=1.0. […] Antagonistic effect is CI>1.0.

[5] = system: OCI-Ly7; experiment: Combination study Compound 1 + Bcl-2 inhibitor, ATPLite 72 h, DLBCL GCB cell line; type: cell-based; settings: combination with Compound 1
From the text: (§3) The method is described as follows.

[6] = system: Farage; experiment: as above; type: cell-based; settings: combination with Compound 1
From the text: as §3

[7] = system: SU-DHL-10-epst; experiment: as above; type: cell-based; settings: combination with Compound 1
From the text: as §3

[8] = system: KARPAS-422; experiment: Combination study Compound 1 + Bcl-2 inhibitor, ATPLite 72 h, follicular lymphoma cell line; type: cell-based; settings: combination with Compound 1
From the text: as §3

[9] = system: RL; experiment: as above; type: cell-based; settings: combination with Compound 1
From the text: as §3

[10] = system: SU-DHL-4-epst; experiment: Combination study Compound 1 + Bcl-2 inhibitor, ATPLite 72 h, DLBCL GCB cell line; type: cell-based; settings: combination with Compound 1
From the text: as §2

[11] = system: DOHH-2; experiment: as above; type: cell-based; settings: combination with Compound 1
From the text: as §2

[12] = system: OPM-2; experiment: Combination study Compound 1 + Bcl-2 inhibitor, ATPLite 72 h, multiple myeloma cell line; type: cell-based; settings: combination with Compound 1
From the text: (§4) The method is described as follows. […] Additive effect is CI=1.0. […] Antagonistic effect is CI>1.0. […] These cell lines include NCI-H929, OMP-2, and RPMI-8226.

[13] = system: NCI-H929; experiment: as above; type: cell-based; settings: combination with Compound 1
From the text: as §4

[14] = system: RPMI-8226; experiment: as above; type: cell-based; settings: combination with Compound 1
From the text: as §4

[15] = system: KARPAS-299; experiment: Combination study Compound 1 + Bcl-2 inhibitor, ATPLite 72 h, T-cell lymphoma cell line; type: cell-based; settings: combination with Compound 1
From the text: (§5) The method is described as follows. […] The cell line includes HH and Karpas-299.

[16] = system: HH; experiment: as above; type: cell-based; settings: combination with Compound 1
From the text: as §5

[17] = system: HBL-1; experiment: Combination study Compound 1 + Bcl-2 inhibitor, ATPLite 72 h, DLBCL ABC cell line; type: cell-based; settings: combination with Compound 1
From the text: as §3

[18] = system: TMD8; experiment: as above; type: cell-based; settings: combination with Compound 1
From the text: as §3

[19] = system: OCI-Ly3; experiment: as above; type: cell-based; settings: combination with Compound 1
From the text: as §3

[20] = system: U-2932; experiment: as above; type: cell-based; settings: combination with Compound 1
From the text: as §3

[21] = system: CLL; experiment: Compound 1 monotherapy in a patient with CLL (clinical trial); type: in vivo, human; settings: 25 mg bid monotherapy
Protocol: A patient diagnosed with CLL was treated by a monotherapy of Compound 1 (25 mg bid) in a clinical trial. Serum samples of the patient were collected at various points in the treatment. The copy number of STK11 in the serum samples was determined by CytoScan (Affymetrix).

[22] = system: SU-DHL-4 control clones; experiment: CTG (CellTiter-Glo) assay, control (DMSO-treated) clones; type: cell-based; settings: Homo sapiens, read-out: AVG Cpnd 1 IC50
Protocol: (§6) Experiments were performed to examine the pathway and gene expression alterations in a cell line resistant to PI3K inhibitors. SU-DHL-4 is a DLBCL cell line. […] Five clones from each group were expanded. Cells were harvested for various assays, including CellTiter-Glo® assays, PD, RNA analysis, DNA analysis, and short tandem repeat (STR) fingerprinting.
(§7) Five clones from each group were expanded. Cells were harvested for various assays, including CTG (CellTiter-Glo, Promega, an assay that measures ATP levels as a surrogate for cell number in order to observe cell viability and changes in proliferation rate), PD (pharmacodynamic), RNA analysis, DNA analysis, and short tandem repeat (STR) fingerprinting. […] See, e.g., FIG. 16.

[23] = system: SU-DHL-4 IBR resistant clones; experiment: CTG (CellTiter-Glo) assay, ibrutinib resistant clones; type: cell-based; settings: Homo sapiens, read-out: AVG Cpnd 1 IC50
Protocol: as §6

[24] = system: Bcl-2 family genes; experiment: RNAseq gene expression changes in peripheral blood of Compound 1-treated CLL patients; type: in vivo, human
Protocol: RNAseq technology was used to measure gene expression changes in peripheral blood in patients treated with Compound 1. The patients were treated as part of a clinical trial (identifier NCT01476657) which is a phase 1 study in patients with advanced hematologic malignancies. Briefly, RNA was extracted from 200 ul of blood using TRI reagent, followed by RNA purification using a Zymo-Spin column. Timepoints were taken at baseline and cycle 1 day 8 (C1D8), which is 7 days of Compound 1 treatment. Expression was quantified using both FPKM and VOOM methods. Filters were used to prioritize genes identified during this analysis.

[25] = system: SU-DHL-4 Compound 1 resistant clones; experiment: CTG (CellTiter-Glo) assay, Compound 1 resistant clones; type: cell-based; settings: Homo sapiens, Cpnd 1 resistant clones
Protocol: as §6, §7

[26] = peripheral blood, Compound 1-treated patients, baseline vs C1D8

CC1(C)CCC(c2ccc(Cl)cc2)=C(CN2CCN(c3ccc(C(=O)NS(=O)(=O)c4ccc(N[C@H](CCN5CCOCC5)CSc5ccccc5)c(S(=O)(=O)C(F)(F)F)c4)cc3)CC2)C1 [ABT-263, (R)-4-(4-((4′-chloro-4,4-dimethyl-3,4,5,6-tetrahydro-[1,1′-biphenyl]-2-yl)methyl)piperazin-1-yl)-N-((4-((4-morpholino-1-(phenylthio)butan-2-yl)amino)-3((trifluoromethyl)sulfonyl)phenyl)sulfonyl)benzamide]
W (W=≥1): CI50 inhibition [1] | CI50 growth inhibition [5] | CI50 inhibition [19]
S (S=0.1 to <0.5): CI50 growth inhibition [1] | CI50 growth inhibition [2] | CI50 inhibition [2] | CI50 growth inhibition [3] | CI50 inhibition [4] | CI50 growth inhibition [8] | CI50 inhibition [10] | CI50 growth inhibition [11] | CI50 inhibition [11] | CI50 inhibition [16] | CI50 growth inhibition [17] | CI50 growth inhibition [18]
A3 (A3=3 to <10): Synergy score growth inhibition [1] | Synergy score growth inhibition [2] | Synergy score inhibition [2] | Synergy score growth inhibition [3] | Synergy score inhibition [4] | Synergy score growth inhibition [6] | Synergy score growth inhibition [7] | Synergy score inhibition [8] | Synergy score growth inhibition [9] | Synergy score inhibition [10] | Synergy score inhibition [11] | Synergy score growth inhibition [12] | Synergy score growth inhibition [14] | Synergy score growth inhibition [16] | Synergy score growth inhibition [17] | Synergy score growth inhibition [18] | Synergy score growth inhibition [19] | Synergy score growth inhibition [20]
T (T=0.5 to <0.7): CI50 inhibition [3] | CI50 growth inhibition [4] | CI50 growth inhibition [6] | CI50 inhibition [6] | CI50 inhibition [8] | CI50 growth inhibition [10] | CI50 growth inhibition [12] | CI50 inhibition [13] | CI50 growth inhibition [14] | CI50 inhibition [18] | CI50 growth inhibition [20] | CI50 inhibition [20]
U (U=0.7 to <1): CI50 growth inhibition [7] | CI50 inhibition [7] | CI50 growth inhibition [9] | CI50 inhibition [9] | CI50 inhibition [12] | CI50 growth inhibition [13] | CI50 inhibition [14] | CI50 growth inhibition [16] | CI50 inhibition [17] | CI50 growth inhibition [19]
A1 (A1=0.0001 to <1): Synergy score inhibition [1] | Synergy score growth inhibition [5] | Synergy score inhibition [5] | Synergy score inhibition [9] | Synergy score growth inhibition [15] | Synergy score inhibition [15] | Synergy score inhibition [19]
A2 (A2=1 to <3): Synergy score inhibition [3] | Synergy score inhibition [6] | Synergy score inhibition [7] | Synergy score inhibition [12] | Synergy score growth inhibition [13] | Synergy score inhibition [13] | Synergy score inhibition [14] | Synergy score inhibition [16] | Synergy score inhibition [17] | Synergy score inhibition [18] | Synergy score inhibition [20]
A4 (A4=≥10): Synergy score growth inhibition [4] | Synergy score growth inhibition [8] | Synergy score growth inhibition [10] | Synergy score growth inhibition [11]

C[C@H](Nc1ncnc2[nH]cnc12)c1cc2cccc(Cl)c2c(=O)n1-c1ccccc1 [Compound 1, (S)-3-(1-((9H-purin-6-yl)amino)ethyl)-8-chloro-2-phenylisoquinolin-1(2H)-one]
241 ± 17 nM: IC50 [22]
up-regulated: BBC3 (also called PUMA) gene expression change [24, 26] | BMF gene expression change [24, 26] | Bcl2L11 (also called BIM) gene expression change [24, 26] | Bcl2 gene expression change [24, 26] | HRK gene expression change [24, 26] | PMAIP1 (also called NOXA) gene expression change [24, 26]
805 ± 339 nM: IC50 [23]
downregulated: BIK gene expression change [24, 26]
partial response: patient response ([21]; at C3D1 (cycle 3, day 1))
progressed: patient response ([21]; after C7 (cycle 7))
at least 1.5 fold: HRK expression level increase ([24]; many of the patients having stable disease or partial remission, after 7 days of Compound 1 treatment, FIG. 7)
5.42 ± 1.08 µM: IC50 [25]
